Experimental findings from article PMC3791473 (Nature Communications, 2013) are described below.

Peptide text beside a SMILES is read from it.

The target of one experiment is T1, Ptr2p (Saccharomyces cerevisiae, UniProt P32901).
T1 sequence (P32901 1-601): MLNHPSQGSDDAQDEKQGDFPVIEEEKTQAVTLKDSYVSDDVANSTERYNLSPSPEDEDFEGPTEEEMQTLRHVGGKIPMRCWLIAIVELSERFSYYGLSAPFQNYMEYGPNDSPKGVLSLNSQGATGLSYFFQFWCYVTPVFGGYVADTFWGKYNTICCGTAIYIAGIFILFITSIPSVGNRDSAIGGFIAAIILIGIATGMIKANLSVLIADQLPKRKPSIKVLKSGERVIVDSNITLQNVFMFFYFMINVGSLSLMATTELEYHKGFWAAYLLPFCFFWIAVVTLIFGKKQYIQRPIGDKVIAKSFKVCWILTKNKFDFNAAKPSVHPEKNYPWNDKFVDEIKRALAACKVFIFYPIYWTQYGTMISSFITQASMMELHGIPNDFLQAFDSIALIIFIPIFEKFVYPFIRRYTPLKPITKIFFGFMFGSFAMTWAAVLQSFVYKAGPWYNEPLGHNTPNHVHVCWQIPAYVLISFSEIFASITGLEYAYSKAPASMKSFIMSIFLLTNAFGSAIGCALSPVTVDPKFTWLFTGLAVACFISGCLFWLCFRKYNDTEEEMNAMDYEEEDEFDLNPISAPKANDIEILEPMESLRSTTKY
The experiment in a line: Fluorescence-based competitive uptake. The format is cell-based.
Details: not given
In turn, `CC(C)C[C@H](N)C(=O)N[C@@H](Cc1c[nH]cn1)C(=O)O` [N-terminal L, C-terminal H, Leu-His] (H-Leu-His-OH; N-terminus and C-terminus assumed) yielded a Ki of 130 µM.
Compound `CC(C)C[C@H](NC(=O)[C@@H](N)Cc1c[nH]cn1)C(=O)O` [N-terminal H, C-terminal L, His–Leu] (H-His-Leu-OH; N-terminus and C-terminus assumed) returned an inhibitory constant (Ki) of 50 µM.
On to `CC(C)C[C@H](NC(=O)CN)C(=O)O` [N-terminal G, C-terminal L, Gly-Leu], for which the Ki is 600 µM.
Same read-out and setting: for `CC(C)C[C@H](NC(=O)[C@H](C)N)C(=O)O` [N-terminal A, C-terminal L, Ala–Leu] (H-Ala-Leu-OH; N-terminus and C-terminus assumed) the value was 310 µM.
Same read-out and setting: for `C[C@H](N)C(=O)N[C@@H](C)C(=O)O` [N-terminal A, C-terminal A, Ala–Ala] (H-Ala-Ala-OH; N-terminus and C-terminus assumed) the value was 400 µM; for `NCC(=O)NCC(=O)NCC(=O)O` [Gly–Gly–Gly] (H-Gly-Gly-Gly-OH; N-terminus and C-terminus assumed), 48000 µM; for `N[C@@H](Cc1c[nH]c2ccccc12)C(=O)N[C@@H](Cc1ccccc1)C(=O)O` [N-terminal W, C-terminal F, Trp-Phe] (H-Trp-Phe-OH), 20 µM.
`CC(C)C[C@H](N)C(=O)NCC(=O)O` [N-terminal L, C-terminal G, Leu-Gly] (H-Leu-Gly-OH; N-terminus and C-terminus assumed) yielded a Ki of 360 µM.

The experiment is the same for the next values; noted with them: SC-Ptr2p cells.
As to carnosine [reference compound], the “competitive inhibition of β-Ala–Lys (AMCA) uptake” value is “inhibited”.

Staying with this experiment, now noted: read-out: Km of β-Ala–Lys (AMCA) uptake; SC-Ptr2p cells; (±s.d.).
Take β-Ala–Lys (AMCA) [reference compound]: the Michaelis constant (Km) came to 160 µM.

A word on the Ki: it is the equilibrium dissociation constant of an inhibitor or competing ligand from its target. A high value points to weaker binding. Broadly, the Km is the substrate concentration at which the rate is half of its maximum.
